Experiment: Antagonist activity at human P2Y12 receptor assessed as inhibition of ADP-induced platelet-rich plasma aggregation by turbidimetric method

Row | SMILES | IC50
1 | CCCCOC(=O)N1CCN(C(=O)[C@H](CCC(=O)O)NC(=O)c2cc(OC3CCNCC3)cc(-c3ccccc3)n2)CC1 [(S)-5-(4-(butoxycarbonyl)piperazin-1-yl)-5-oxo-4-(6-phenyl-4-(piperidin-4-yloxy)picolinamido)pentanoic acid] | 1.1 µM
2 | C=CCOC(=O)N1CCN(C(=O)[C@H](CCC(=O)O)NC(=O)c2cc(OCCOC)cc(-c3ccccc3)n2)CC1 [(S)-5-(4-(allyloxycarbonyl)piperazin-1-yl)-4-(4-(2-methoxyethoxy)-6-phenylpicolinamido)-5-oxopentanoic acid] | 13.3 µM
3 | CCOC(=O)N1CCN(C(=O)[C@H](CCC(=O)O)NC(=O)c2cc(OCCCO)cc(-c3ccccc3)n2)CC1 [(4S)5-[4-(Ethoxycarbonyl)iperazin-1-yl]-4-({[4-(3-hydroxypropoxy)6-phenylpyridin-2-yl]carbonyl}amino)5-oxopentanoic Acid] | 9 µM
4 | CCOC(=O)N1CCN(C(=O)[C@H](CCC(=O)O)NC(=O)c2cc(NCc3ccccc3)cc(-c3ccccc3)n2)CC1 [(S)-4-(4-(benzylamino)-6-phenylpicolinamido)-5-(4-(ethoxycarbonyl)piperazin-1-yl)-5-oxopentanoic acid] | 81 µM
5 | CCOC(=O)N1CCN(C(=O)[C@H](CCC(=O)O)NC(=O)c2cc(N3CCC(O)CC3)cc(-c3ccccc3)n2)CC1 [(4S)5-[4-(Ethoxycarbonyl)piperazin-1-yl]-4-({[4-(4-hydroxypiperidin-1-yl)6-phenylpyridin-2-yl]carbonyl}amino)5-oxopentanoicAcid] | 9.8 µM
6 | CCOC(=O)N1CCN(C(=O)[C@H](CCC(=O)O)NC(=O)c2cc(NC3CCOCC3)cc(-c3ccccc3)n2)CC1 [(S)-5-(4-(ethoxycarbonyl)piperazin-1-yl)-5-oxo-4-(6-phenyl-4-(tetrahydro-2H-pyran-4-ylamino)picolinamido)pentanoic acid] | 21 µM
7 | CCOC(=O)N1CCN(C(=O)[C@H](CCC(=O)O)NC(=O)c2cc(N3CCC(COC)CC3)cc(-c3ccccc3)n2)CC1 [(4S)5-[4-(Ethoxycarbonyl)piperazin-1-yl]-4-[({4-[4-(methoxymethyl)piperidin-1-yl]-6-phenylpyridin-2-yl}carbonyl)amino]-5-oxopentanoic Acid] | 9.9 µM
8 | C=CCOC(=O)N1CCN(C(=O)[C@H](CCC(=O)O)NC(=O)c2cc(OCCO)cc(-c3ccccc3)n2)CC1 [(S)-5-(4-(allyloxycarbonyl)piperazin-1-yl)-4-(4-(2-hydroxyethoxy)-6-phenylpicolinamido)-5-oxopentanoic acid] | 11.1 µM
9 | CCCCOC(=O)N1CCN(C(=O)[C@H](CCC(=O)O)NC(=O)c2cc(OCCCC)cc(-c3ccccc3)n2)CC1 [(4S)5-[4-(Butoxycarbonyl)iperazin-1-yl]-4-{[(4-butoxy-6-phenylpyridin-2-yl)carbonyl]amino}-5-oxopentanoic Acid] | 26.9 µM
10 | CCCCCCOC(=O)N1CCN(C(=O)[C@H](CCC(=O)O)NC(=O)c2cc(N3CCC(CN)CC3)cc(-c3ccccc3)n2)CC1 [(S)-4-(4-(4-(aminomethyl)piperidin-1-yl)-6-phenylpicolinamido)-5-(4-(hexyloxycarbonyl)piperazin-1-yl)-5-oxopentanoic acid] | 1.6 µM
11 | CCOC(=O)N1CCN(C(=O)[C@H](CCC(=O)O)NC(=O)c2cc(N(C)CCS(C)(=O)=O)cc(-c3ccccc3)n2)CC1 [(S)-5-(4-(ethoxycarbonyl)piperazin-1-yl)-4-(4-(methyl(2-(methylsulfonyl)ethyl)amino)-6-phenylpicolinamido)-5-oxopentanoic acid] | 7.6 µM
12 | CCOC(=O)N1CCN(C(=O)[C@H](CCC(=O)O)NC(=O)c2cc(N3CCC(CN)CC3)cc(-c3ccccc3)n2)CC1 [(S)-4-(4-(4-(aminomethyl)piperidin-1-yl)-6-phenylpicolinamido)-5-(4-(ethoxycarbonyl)piperazin-1-yl)-5-oxopentanoic acid] | 3.3 µM
13 | CCCCOC(=O)N1CCN(C(=O)[C@H](CCC(=O)O)NC(=O)c2cc(OCCOC)cc(-c3ccccc3)n2)CC1 [(4S)5-[4-(Butoxycarbonyl)iperazin-1-yl]-4-({[4-(2-methoxyethoxy)6-phenylpyridin-2-yl]carbonyl}amino)5-oxopentanoicAcid] | 4.4 µM
14 | CCOC(=O)N1CCN(C(=O)[C@H](CCC(=O)O)NC(=O)c2cc(OCc3ccccc3)cc(-c3ccccc3)n2)CC1 [(S)-4-(4-(benzyloxy)-6-phenylpicolinamido)-5-(4-(ethoxycarbonyl)piperazin-1-yl)-5-oxopentanoic acid] | 31 µM
